Assays:
FLAG-tagged Rev = target: T1, FLAG-tagged Rev (Human immunodeficiency virus type 1 group M subtype B, UniProt P04618); assay: Confocal immunofluorescence of FLAG-Rev subcellular localization; type: cell-based, HIV-1; conditions: 100 nM dCA, HeLa-CD4-LTR-Luc cells
T1 construct: expressed in transfected cells; host or cells: HeLa-CD4-LTR-Luc
Source text: If dCA were to bind the basic domain of Tat in its disordered form, then one would predict it might also bind to other basic peptide sequences and block their functions. The two well-known proteins that share a similar basic domain with Tat are HIV-1 Rev protein and the cellular protein Hexim-1 (Fig. 3A). As such, we investigated whether dCA could inhibit these similar basic domain functions. The basic domain of Rev is responsible for its nuclear localization ([31]); therefore, we assessed whether dCA could impact the subcellular localization of Rev (Fig. 3B) as previously shown for Tat ([10]). We transfected HeLa-CD4-LTR-Luc cells with a plasmid expressing FLAG-tagged Rev and assessed Rev localization in the presence of 100 nM dCA. […] Twenty-four hours later, cells were collected, and total, nuclear, and cytoplasmic mRNAs were extracted, reverse transcribed, and quantified by quantitative real-time PCR (qRT-PCR).
(A) Sequence of the basic domains of HIV Tat HXB3, HIV Rev Bru and intracellular Hexim-1. […] (C) Quantification of the nucleolar fluorescence of panel B using ImageJ. […] Total, nuclear, and cytoplasmic mRNAs were extracted, and viral messages were determined by qRT-PCR. […] (G) Quantification of nuclear fluorescence of panel F using ImageJ. […] Statistical significance was determined using one-way ANOVA with post hoc Tukey’s test. ns, not significant; ***, P < 0.0001; **, P < 0.001. […]

HIV = tested on: HIV; set-up: method as in PMID 29045830; conditions: dCA added to ART-suppressed mice; cited from earlier work

T1 sequence (P04618 whole entry, looked up): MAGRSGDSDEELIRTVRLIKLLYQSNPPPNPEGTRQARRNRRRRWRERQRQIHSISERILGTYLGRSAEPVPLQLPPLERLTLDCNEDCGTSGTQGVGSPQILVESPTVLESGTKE

**Q.** Which “subcellular localization of Rev” value (FLAG-tagged Rev) does the source give for `CN(C)C1CC23CCC4(O2)C(=CCC2(C)C(c5ccc6ccncc6c5)=CCC24)C=C3C(O)C1O` (centres unmarked) [dCA, didehydro-cortistatin A] here?
**A.** The value was “localization of Rev was left unchanged”.

**Q.** And the in vivo efficacy (HIV)?
**A.** Its in vivo efficacy is “systemically reduced viral mRNA in tissues and significantly delayed and reduced viral rebound levels upon treatment interruption”.
